Measurements reported in patent publication US20240197712A1, “TGF-BETA INHIBITION FOR IMMUNODEFICIENCY VIRUS REACTIVATION FROM LATENCY, ENHANCEMENT OF IMMUNODEFICIENCY VIRUS-SPECIFIC RESPONSES AND IMMUNODEFICIENCY VIRUS CURE” (Northwestern University, priority 2022, published 2024).

Legend:
U1 cells = assay: PMA-induced HIV reactivation in U1 cells, intracellular p24 staining; type: cell-based
Experimental: ACH2 cells and U1 cells were obtained through the NIH HIV Reagent Program, Division of AIDS, NIAID, NIH (contributed by Dr. Thomas Folks). Cells ([…]) were cultured in triplicates in RPMI with 10% FBS and Pen/Strep in presence of TGF-β1 (10 ng/ml R&D systems), TGF-β1 and galunisertib (1 μM MedChemExpress), galunisertib alone or mock treated. In the HIV latency reactivation conditions, PMA (Phorbol 12-myristate 13-acetate, SigmaAldrich) was added at 100 ng/ml together with galunisertib or TGF-β1. After 18 hrs, cells were stained intracellularly for p24 using the KC57 antibody (NIH HIV Reagent Program) as previously described (74).

SIVmac239M2 = assay: Cell-associated vDNA in PBMC, colorectal biopsies and lymph nodes; type: in vivo, rhesus macaques
Experimental: Blood was collected in EDTA tubes and plasma was separated by density gradient centrifugation and used for the determination of plasma VL by SIVgag qRT-PCR at NIRC or at Leidos (Quantitative Molecular Diagnostics Core, AIDS and Cancer Virus Program Frederick National Laboratory). Tissue VL from snap frozen PBMC pellets, colorectal biopsies and LN FNA were performed as described in (77). SIV-TILDA was performed on freshly stored PBMC before cycle 1 and at the end of cycle 4 of galunisertib by Accelevir, Baltimore, MD.

SIV-env = assay: ImmunoPET/CT, four-cycle study; type: in vivo, rhesus macaques
Experimental: ImmunoPET/CT for mapping SIV signals in total body scans were conducted in part as reported previously (110). The probe consisted of primatized p7D3 anti-env F(ab)′2 coupled with the chelator DOTA and labeled with Cu64 just prior to administration to the animals. For probe administration, the animals were sedated, and a venous catheter was placed into an arm of leg vein to minimize bleeding of the probe into the tissue surrounding the site of injection. The probe for each animal consisted of ˜1 mg of the p7D3 F(ab)′2 labeled with 2-3 mCi of ^64Cu. After injection, the animals were allowed to recuperate in their cage until the next day. At 24 hours, the animals were again anesthetized with Telazol and the macaque's body was immobilized in dorsal recumbency on the scanner table. Scans were conducted 535 in a Phillips Gemini TF64 scanner. The final CT image was compiled from 200 to 300 slices, depending on macaque size. PET Image analysis was performed using the MIM software. PET/CT fusions were generated scaled according to calculated Standardized Uptake Values (SUV). The SUV scale for the PET scans was selected based on the overall signal intensity of the PET scans (whole body), and the CT scale was selected for optimal visibility of the tissues. All images and maximum image projections were set to the same scale for visual comparisons.
Multimodal registration and ROI segmentation were executed using the MIM software (MIM Software, Inc., Cleveland, OH) for PET and CT images, encompassing 250 to 300 fractions, depending on the macaque's body size. PET and CT images were fused to quantify changes in SUV (Standardized Uptake Value) within Regions of Interest (ROI), with PET SUV scale determined by overall signal intensity and CT scale optimized for tissue visibility. Segmentations were performed for various anatomical regions: Whole Body, Liver, Lymph nodes, Gut, Kidneys, Spleen, and Vertebrae. The external body was outlined for the Whole-Body contour, while the GRADIENT method PET-Edge and interactive contouring tools were employed for other ROIs. Liver segmentation initially utilized PET-Edge in PET coronal-sectional view, followed by interactive delineation for the structure and the corresponding signals. Kidneys, Spleen, and Vertebrae volume were determined based on CT scans in the cross-sectional view, incorporating PET signals into contours. […] To quantify the signal in the axillary lymph nodes, the data-point in each macaque featuring the strongest PET signal was chosen as a basis for an inhouse Multi-Time-Point Contour Transfer Workflow, followed by interactive contouring of the signal to all time points. The workflow integrated CT scans to establish and map specific ROIs in subsequent scans, thereby accounting for any changes in the animal's orientation at other time points through manual adjustments. To quantify the signal in the gut tissue, the body segment below the stomach to above the cervix was initially isolated. The Gut's SUV was then calculated by extracting the spleen, both kidneys, liver, and bones within the designated body region using Boolean operations.

SMILES: Cc1cccc(-c2nn3c(c2-c2ccnc4ccc(C(N)=O)cc24)CCC3)n1 [galunisertib, Galunisertib]
- frequency of p24-gag+ cells in unstimulated cultures (U1 cells; U1 cells, no PMA, TGF-β1 10 ng/ml or galunisertib 1 μM alone): slightly increase
- frequency of p24-gag+ cells in the presence of exogenous TGF-β1 (U1 cells; U1 cells, TGF-β1 10 ng/ml + galunisertib 1 μM, with or without PMA): restores the frequency of p24-gag+ cells
- frequency of p24-gag+ cells in PMA-stimulated U1 cells (U1 cells; galunisertib 1 μM alone, PMA 100 ng/ml): no impact
- cell-associated SIV DNA in lymph nodes, gut and PBMC (SIVmac239M2; 8 macaques, four 2-week cycles): Half to 1 Log decrease
- CA-vDNA decrease in gut, median (SIVmac239M2; BC1 (week 35 pi) vs AC4 (week 49 pi)): 0.77 folds
- CA-vDNA decrease in PBMC, range (SIVmac239M2; BC1 vs AC3): 0.28-0.88 folds
- CA-vDNA decrease in gut, range (SIVmac239M2; BC1 vs AC4): 0.33-0.94 folds
- CA-vDNA decrease in PBMC, median (SIVmac239M2; BC1 vs end of cycle 3 (AC3)): 0.58 folds
- cell-associated viral DNA in lymph nodes and colorectal biopsies (SIVmac239M2; Example 5, end of cycle 4 vs before Gal): decreased by over a Log
- CA-vDNA decrease in LN, median (SIVmac239M2; right axillary LN, BC1 vs AC4): 0.93 folds
- CA-vDNA decrease in LN, range (SIVmac239M2; right axillary LN, BC1 vs AC4): 0.33-0.98 folds
- SIV reactivation in tissues by PET/CT (SIV-env; Example 5, all macaques, particularly after cycle 2): Extensive SIV reactivation
- SUV increase in gastrointestinal area and axillary lymph nodes (SIV-env; compared to before cycle 1 (BC1)): significant in cycle 3
- SUV at the level of the spleen or kidney (SIV-env; vs BC1): No SUV increase
- SUV in the liver and whole-body (SIV-env; vs BC1): significant increase in SUV
- Spine SUV (SIV-env; vs BC1): increased significantly with the first cycle
